Results reported in patent US11053190B2, “Alpha-aminoamide derivative compound and pharmaceutical composition comprising same” (NEUROBIOGEN CO., LTD., priority 2014, dated 2021).
pIC50: −log10 of the molar value. Read-outs that look alike come from different tables or passages of the source.

Legend:
[1] = target: T1, human-derived monoamine oxidase B (Homo sapiens, UniProt P27338); assay: Effect of inhibiting activity of monoamine oxidase B (MAO-B assay); type: biochemical; conditions: Amplex Red, benzylamine substrate
T1 sequence (P27338 1-520): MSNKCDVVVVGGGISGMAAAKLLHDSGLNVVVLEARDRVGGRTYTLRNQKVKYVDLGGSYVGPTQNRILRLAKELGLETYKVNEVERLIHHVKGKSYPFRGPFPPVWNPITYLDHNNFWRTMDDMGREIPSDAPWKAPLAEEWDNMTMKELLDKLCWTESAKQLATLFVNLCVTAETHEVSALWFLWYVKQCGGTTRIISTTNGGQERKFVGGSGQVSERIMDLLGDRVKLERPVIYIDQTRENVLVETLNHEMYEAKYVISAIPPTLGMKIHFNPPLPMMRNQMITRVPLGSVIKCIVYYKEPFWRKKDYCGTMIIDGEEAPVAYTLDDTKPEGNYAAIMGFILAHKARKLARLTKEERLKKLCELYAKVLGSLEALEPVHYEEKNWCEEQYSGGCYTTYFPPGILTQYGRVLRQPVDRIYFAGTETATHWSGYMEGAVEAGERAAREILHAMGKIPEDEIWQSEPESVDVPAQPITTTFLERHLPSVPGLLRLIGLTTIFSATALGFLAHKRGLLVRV

[2] = target: T2, MAO-A (Homo sapiens, UniProt P21397); assay: MAO-A inhibition (Table 1); type: biochemical
T2 sequence (P21397 1-527): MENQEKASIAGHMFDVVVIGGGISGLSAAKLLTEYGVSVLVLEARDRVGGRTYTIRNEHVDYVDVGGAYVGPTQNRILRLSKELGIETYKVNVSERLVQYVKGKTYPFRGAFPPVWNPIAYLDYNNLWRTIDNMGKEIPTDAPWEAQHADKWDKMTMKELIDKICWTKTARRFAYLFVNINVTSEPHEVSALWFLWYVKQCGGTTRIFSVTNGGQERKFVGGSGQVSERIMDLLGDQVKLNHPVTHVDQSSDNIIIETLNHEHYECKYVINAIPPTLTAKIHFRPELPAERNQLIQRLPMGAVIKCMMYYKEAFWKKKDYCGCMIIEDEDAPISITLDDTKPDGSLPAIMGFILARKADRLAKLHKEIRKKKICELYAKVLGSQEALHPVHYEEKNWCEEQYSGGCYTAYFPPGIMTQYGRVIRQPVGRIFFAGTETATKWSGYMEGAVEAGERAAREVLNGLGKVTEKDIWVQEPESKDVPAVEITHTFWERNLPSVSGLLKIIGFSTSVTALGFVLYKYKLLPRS

[3] = tested on: dopaminergic neurons in the substantia nigra and the corpus striatum; assay: MPTP mouse model of Parkinson's disease, TH (tyrosine hydroxylase) immunohistochemistry; type: in vivo; conditions: for dopaminergic neuron survivability (TH expression), pre-treatment: from one day before MPTP 20 mg/kg i.p., FIG. 2a
[4] = tested on: DGGCs (dentate gyrus granule cells) of the hippocampus; assay: Inhibition of channel excitability, electrophysiology; type: cell-based; conditions: FIG. 4
Source text: In order to investigate the channel inhibitory effect, inhibition of channel excitability was investigated electrophysiologically using DGGCs (dentate gyrus granule cells) of the hippocampus.

[5] = tested on: APP/PS1 mouse; conditions: Jo et al., Nature Medicine 2014, cited from earlier work
[6] = target: T1, human-derived monoamine oxidase B; assay: Confirmation of reversible inhibitory effect (washing in centrifugal filter); type: biochemical
[7] = tested on: APP/PS1 mouse; assay: APP/PS1 mouse model of Alzheimer's disease, spike probability of dentate gyrus granule cells; type: in vivo; conditions: 2 weeks in drinking water
[8] = tested on: obesity model mouse; assay: HFD (high-fat diet) mouse model of obesity; type: in vivo
Experimental: 7-week-old mice were divided into 2 groups and were given a normal diet (white, chow) and a high-fat diet (blue, HFD), respectively, for 8 weeks.
The total calorie provided to the normal diet mice and the high-fat diet mice was set to be equal. The average body weight of the normal diet group was measured to be […] at 8 weeks, with about 20% increase from the initial weight of […]. In contrast, the average body weight of the high-fat diet almost doubled to about […].
In addition to the increase in reactive astrocytes, overproduction of γ-aminobutyric acid (GABA) was also detected.

[9] = 10 mg/kg oral, treated from day 3 after MPTP, FIG. 2b
[10] = administration for 30 days, FIG. 2c

## C[C@H](NCc1ccc(-c2ccccc2Cl)cc1)C(N)=O [Example 4, (S)-2-(((2′-chlorobiphenyl-4-yl)methyl)amino) propanamide methanesulfonate]
[1]
  pIC50: < 5.00
[2]
  pIC50: < 4.00

## COc1ccc(-c2ccc(CN[C@@H](C)C(N)=O)cc2)cc1 [Example 13, (S)-2-(((4′-methoxybiphenyl-4-yl)methyl)amino)propanamide methanesulfonate]
[1]
  pIC50: 5.97
[2]
  pIC50: < 4.00

## C[C@H](NCc1ccc(-c2ccc(Cl)cc2)cc1)C(N)=O [Example 6, (S)-2-(((4′-chlorobiphenyl-4-yl)methyl)amino) propanamide methanesulfonate]
[1]
  pIC50: 6.38
[2]
  pIC50: < 4.00

## NC(=O)CNCc1ccc(-c2ccc(C(F)(F)F)cc2)cc1 [Example 16, (R)-2-(((4′-trifluoromethylbiphenyl-4-yl)methyl)amino)acetamide methanesulfonate]
[1]
  pIC50: 6.90
[2]
  pIC50: < 4.00

## C[C@H](NCc1ccc(OCc2cccc(F)c2)cc1)C(N)=O [S-Safinamide, Safinamide, reference compound]
[3]; 10 mg/kg oral
  dopaminergic neuron survivability (TH expression), pre-treatment: dopaminergic neuron survivability comparable to that of the control group
[3]; [9]
  death of dopaminergic neurons, post-treatment: significantly decreased death of the neurons
[3]; [10]
  protection of dopaminergic neurons in the corpus striatum, 30-day administration: slightly lower efficacy
[4]; 10 μM, read-out: excitability inhibitory effect
  inhibition at 10 µM: ~40%
[5]
  efficacy in the Alzheimer's disease model after 2 weeks: maintains excellent efficacy

## C[C@H](NCc1ccc(-c2ccc(F)cc2)cc1)C(N)=O [Example 3, (S)-2-(((4′-fluorobiphenyl-4-yl)methyl)amino) propanamide methanesulfonate]
[1]
  pIC50: < 5.00

## CC(C)C[C@@H](NCc1ccc(-c2ccc(C(F)(F)F)cc2)cc1)C(N)=O [Example 18, (R)-4-methyl-2-(((4′-trifluoromethylbiphenyl-4-yl)methyl)amino)pentanamide methanesulfonate]
[1]
  pIC50: 5.28
[2]
  pIC50: < 4.00

## C[C@H](NCc1ccc(-c2ccc(C(F)(F)F)cc2)cc1)C(N)=O [Example 9, (S)-2-(((4′-trifluoromethylbiphenyl-4-yl)methyl)amino) propanamide methanesulfonate]
[2]
  pIC50: < 3.30
[6]; 1 μM
  Reversibility: Reversible
[6]; 1 μM, after washing
  Recovered MAO-B activity: >85%
[6]; after centrifugal filter and washing with buffer (B), read-out: B. MAO-B inhibition effect
  inhibition at 1 µM: < 15%
[6]; without washing (A), read-out: A. MAO-B inhibition effect
  inhibition at 1 µM: 82%
[3]; 10 mg/kg oral
  dopaminergic neuron survivability (TH expression), pre-treatment: dopaminergic neuron survivability comparable to that of the control group
[3]; [9]
  death of dopaminergic neurons, post-treatment: significantly decreased death of the neurons
[3]; 10 mg/kg oral, treated from day 3 after MPTP, substantia nigra, FIG. 2b
  recovery of dopaminergic neurons in the substantia nigra, post-treatment: recovered the dopaminergic neurons in the substantia nigra to a level comparable to that of the control group not treated with MPTP
[3]; [10]
  protection of dopaminergic neurons in the corpus striatum, 30-day administration: protected dopaminergic neurons to a level comparable to that of the control group not treated with MPTP
[3]; administration for 30 days, substantia nigra, FIG. 2c
  protection of dopaminergic neurons in the substantia nigra, 30-day administration: protected neurons similarly to the control group
[3]; compared with selegiline and safinamide
  overall efficacy in the three tests on the MPTP mouse model: superior efficacy as compared to selegiline and safinamide
[7]
  efficacy (spike probability) compared with safinamide: higher than that of safinamide
[7]; FIG. 3b
  spike probability depending on stimulus intensity: superior efficacy was observed
[4]; 10 μM
  excitability inhibitory effect: almost no inhibitory effect
[4]; 50 μM
  excitability inhibitory effect: lower inhibitory effect than safinamide
[8]; 10 mg/kg/day and 100 mg/kg/day groups, FIG. 8
  body weight increase due to high-fat diet: inhibited body weight increase due to the intake of the high-fat diet in a concentration-dependent manner
[8]; high-fat diet mice, FIG. 8
  amount of food intake: no difference in the amount of food intake
[8]; high-fat diet mice, FIG. 9
  GFAP (biomarker for reactive astrocytes) in the arcuate nucleus: Remarkable decrease in GFAP
  overproduction of GABA in the arcuate nucleus: effective inhibition of the overproduction of GABA

## C[C@H](NCc1ccc(-c2cccc(F)c2)cc1)C(N)=O [Example 2, (S)-2-(((3′-fluorobiphenyl-4-yl)methyl)amino) propanamide methanesulfonate]
[1]
  pIC50: < 5.00

## C[C@@H](NCc1ccc(-c2ccc(C(F)(F)F)cc2)cc1)C(N)=O [Example 15, (R)-2-(((4′-trifluoromethylbiphenyl-4-yl)methyl)amino)propanamide methanesulfonate]
[2]
  pIC50: < 4.00

## C[C@@H](NCc1ccc(-c2cccc(F)c2)cc1)C(N)=O [Example 14, methanesulfonate]
[1]
  pIC50: < 5.00
[2]
  pIC50: < 4.00

## C[C@H](NCc1ccc(-c2cccc(OC(F)(F)F)c2)cc1)C(N)=O [Example 10, (S)-2-(((3′-trifluoromethoxybiphenyl-4-yl)methyl)amino)propanamide methanesulfonate]
[1]
  pIC50: 6.67
[2]
  pIC50: < 4.00

## CC(C)[C@@H](NCc1ccc(-c2ccc(C(F)(F)F)cc2)cc1)C(N)=O [Example 17, (R)-3-methyl-2-(((4′-trifluoromethylbiphenyl-4-yl)methyl)amino)butanamide methanesulfonate]
[1]
  pIC50: 5.39
[2]
  pIC50: < 4.00

## C[C@H](NCc1ccc(-c2cccc(Cl)c2)cc1)C(N)=O [Example 5, (S)-2-(((3′-chlorobiphenyl-4-yl)methyl)amino) propanamide methanesulfonate]
[1]
  pIC50: 6.35
[2]
  pIC50: < 4.00

## C#CCN(C)[C@H](C)Cc1ccccc1 [Selegiline]
[5]
  efficacy in the Alzheimer's disease model after 2 weeks: the efficacy decreases greatly
[5]; after 4 weeks
  efficacy in the Alzheimer's disease model after 4 weeks: no efficacy is observed
[5]; initial
  efficacy in the Alzheimer's disease model, initially: excellent efficacy initially

## COc1cccc(-c2ccc(CN[C@@H](C)C(N)=O)cc2)c1 [Example 12, (S)-2-(((3′-methoxybiphenyl-4-yl)methyl)amino)propanamide methanesulfonate]
[1]
  pIC50: 5.48
[2]
  pIC50: < 4.00

## C[C@H](NCc1ccc(-c2ccccc2F)cc1)C(N)=O [Example 1, (S)-2-(((2′-fluorobiphenyl-4-yl)methyl)amino) propanamide methanesulfonate]
[1]
  pIC50: < 5.00

## C[C@H](NCc1ccc(-c2ccc(OC(F)(F)F)cc2)cc1)C(N)=O [Example 11, (S)-2-(((4′-trifluoromethoxybiphenyl-4-yl)methyl)amino)propanamide methanesulfonate]
[1]
  pIC50: 7.01
[2]
  pIC50: < 4.00
